This note sets out measurements from US20250082614A1, “METHODS OF USING RAD51 INHIBITORS FOR TREATMENT OF PANCREATIC CANCER” (Cyteir Therapeutics, Inc., priority 2019, published 2025).

Data set [1] can be described thus: Bi-directional Caco-2 permeability. The data set is classed as in vitro ADME. The settings on record: human; for Papp A→B at 90 min / Papp B→A at 90 min: Caco-2, 37° C., up to 90 minutes; for Papp A→B at 90 min: apical to basolateral, read-out: AB Papp (cm/sec × 10^6); for Papp B→A at 90 min: basolateral to apical, read-out: BA Papp (cm/sec × 10^6); for efflux ratio at 90 min: Caco-2 efflux ratio, read-out: BA/AB Ratio. As for the experimental part: Bi-directional Caco-2 permeability was assayed. Caco-2 cells were seeded onto permeable polycarbonate supports and allowed to differentiate for about 3 weeks prior to being used in the assays. The cells were then exposed to the compounds from either the apical or basolateral sides and incubated at 37° C. for up to 90 minutes under light agitation. Compound transport was then measured using LC/MS/MS analysis at 30, 60, and 90 minutes.

Data set [2] can be described thus: Human liver microsome stability. The format is in vitro ADME. The note with it: human liver microsomes. On the procedure:
The stability of the claimed compounds was determined in the presences of human liver microsomes. The compounds were incubated with the microsomes at 37° C. for 45 minutes. Samples were analyzed using LC-MS/MS. Data analysis included half-life, clearance rate, and the percentage of hepatic blood flow […] for each of the compounds in the different species.

Data set [3] in a line: Pharmacokinetic (PK) study, plasma by LC-MS. The data set is classed as in vivo, rat. The settings on record: po @ 80 mg/kg. On the procedure:
PK studies in mice were used to determine the fate of the compounds in a whole organism. Rats were treated with the compounds either orally of via IV at the indicated doses and followed for up to 24 hours. Plasma samples were taken at different time points and analyzed by LC-MS.

Where [4] appears, read: Caco-2, apical to basolateral, read-out: AB Recovery %.
Setting [5] is: Caco-2, basolateral to apical, read-out: BA Recovery %.

Like-named read-outs stand apart in the source and are kept apart here.

Consider `CC(C)OC(=O)N[C@@H]1CCC(c2ncc(-c3ccc(NC(=O)NCc4ccccc4)cc3S(=O)(=O)NC(C)(C)C)s2)NC1` (stereo partly drawn) [Ex. 64], for which, in data set [1], the Papp A→B at 90 min stood at 2.2 ×10⁻⁶ cm/s, the Papp B→A at 90 min came to 27.4 ×10⁻⁶ cm/s and the efflux ratio at 90 min is 12.5.
Turning to `CC(C)OC(=O)NC1CCC(c2ncc(-c3ccc(NC(=O)NCc4ccccc4F)cc3S(=O)(=O)NC(C)(C)C)s2)CC1` (stereo not drawn) [Ex. 28, isopropyl ((1r,4r)-4-(5-(2-(N-(tert-butyl)sulfamoyl)-4-(3-(2-fluorobenzyl)ureido)phenyl)thiazol-2-yl)cyclohexyl)carbamate], in data set [1], the Papp A→B at 90 min was determined as 1.9 ×10⁻⁶ cm/s, the Papp B→A at 90 min came to 3.3 ×10⁻⁶ cm/s and the efflux ratio at 90 min came out at 1.7.
For `CC(C)OC(=O)N[C@H]1CC[C@H](c2ncc(-c3ccc(NC(=O)NCc4ccccc4)cc3S(=O)(=O)NC(C)(C)C)s2)CC1` [Ex. 66A, trans-isopropyl N-[4-[5-[4-(benzylcarbamoylamino)-2-(tert-butylsulfamoyl)phenyl]thiazol-2-yl]cyclohexyl]carbamate], the “% QH (percentage of hepatic blood flow)” value in data set [2] came to 49.6%. In addition, the “F (%) @ 5 mg/kg” value is on record as 3.31% in data set [3] (Rat Female) and 2.55% in data set [3] (Rat Male).
With `CC(C)OC(=O)N[C@@H]1CCC(c2ncc(-c3ccc(NC(=O)NCc4ccccc4)cc3S(=O)(=O)NC(C)(C)C)s2)OC1` (mixture of isomers) [Ex. 59, trans-isopropyl N-[6-[5-[4-(benzylcarbamoylamino)-2-(tert-butylsulfamoyl)phenyl]thiazol-2-yl]tetrahydropyran-3-yl]carbamate], the recovery at 90 min in data set [1] (setting [4]) came out at 61.5%. For the same molecule, the recovery at 90 min in data set [1] (setting [5]) amounted to 91.5%. Besides, in data set [1], the Papp A→B at 90 min was determined as 3.1 ×10⁻⁶ cm/s, the Papp B→A at 90 min amounted to 15 ×10⁻⁶ cm/s and the efflux ratio at 90 min amounted to 4.8.
`CC(C)OC(=O)Nc1ccc(-c2cnc(C3CC[C@@H](NC(=O)OC(C)C)CO3)s2)c(S(=O)(=O)NC(C)(C)C)c1` (mixture of isomers) [Ex. 60, trans-isopropyl N-[6-[5-[2-(tert-butylsulfamoyl)-4-(isopropoxycarbonylamino)phenyl]thiazol-2-yl]tetrahydropyran-3-yl]carbamate]: in data set [1] (setting [4]), the recovery at 90 min stood at 59.8%. The recovery at 90 min in data set [1] (setting [5]) came out at 90.8%. In data set [1], the Papp A→B at 90 min was 15.6 ×10⁻⁶ cm/s, the Papp B→A at 90 min was 13.3 ×10⁻⁶ cm/s and the efflux ratio at 90 min is 0.9.
Turning to `CC(C)OC(=O)NC1CCC(c2ncc(-c3ccc(NC(=O)NCc4cccc(F)c4)cc3S(=O)(=O)NC(C)(C)C)s2)CC1` (stereo not drawn) [Ex. 27, isopropyl ((1r,4r)-4-(5-(2-(N-(tert-butyl)sulfamoyl)-4-(3-(3-fluorobenzyl)ureido)phenyl)thiazol-2-yl)cyclohexyl)carbamate], in data set [1], the Papp A→B at 90 min was 0.7 ×10⁻⁶ cm/s, the Papp B→A at 90 min is 0.5 ×10⁻⁶ cm/s and the efflux ratio at 90 min was 0.7.
Take `CC(C)OC(=O)NC1CCC(c2ncc(-c3ccc(NC(=O)NCc4ncccc4F)cc3S(=O)(=O)NC(C)(C)C)s2)CC1` (stereo not drawn) [Ex. 31, isopropyl ((1r,4r)-4-(5-(2-(N-(tert-butyl)sulfamoyl)-4-(3-((3-fluoropyridin-2-yl)methyl)ureido)phenyl)thiazol-2-yl)cyclohexyl)carbamate]: in data set [1], the Papp A→B at 90 min worked out at 12.8 ×10⁻⁶ cm/s, the Papp B→A at 90 min turned out to be 13.6 ×10⁻⁶ cm/s and the efflux ratio at 90 min is 1.1. Moreover, the “% QH (percentage of hepatic blood flow)” value in data set [2] came out at 77.3%. In addition, the “F (%) @ 5 mg/kg” value in data set [3] (Rat Female) is 2.77%. The “F (%) @ 5 mg/kg” value in data set [3] (Rat Male) amounted to 1.49%.
`CC(C)OC(=O)N[C@H]1CC[C@H](c2ncc(-c3ccc(NC(=O)NCc4ccncc4)cc3S(=O)(=O)NC(C)(C)C)s2)CC1` [Ex. 22, trans-isopropyl N-[4-[5-[2-(tert-butylsulfamoyl)-4-(4-pyridylmethylcarbamoylamino)phenyl]thiazol-2-yl]cyclohexyl]carbamate]: the recovery at 90 min in data set [1] (setting [4]) was 83.1%. Besides, the recovery at 90 min in data set [1] (setting [5]) is 89%. In data set [1], the Papp A→B at 90 min was 1.1 ×10⁻⁶ cm/s, the Papp B→A at 90 min is 21 ×10⁻⁶ cm/s and the efflux ratio at 90 min was 18.7.
As for `CC(C)OC(=O)NC1CCC(c2ncc(-c3ccc(NC(=O)NCc4ccccn4)cc3S(=O)(=O)NC(C)(C)C)s2)CC1` (stereo not drawn) [Ex. 29, isopropyl ((1r,4r)-4-(5-(2-(N-(tert-butyl)sulfamoyl)-4-(3-(pyridin-2-ylmethyl)ureido)phenyl)thiazol-2-yl)cyclohexyl)carbamate], in data set [1], the Papp A→B at 90 min stood at 10.9 ×10⁻⁶ cm/s, the Papp B→A at 90 min came to 24.1 ×10⁻⁶ cm/s and the efflux ratio at 90 min was determined as 2.2. Besides, in data set [2], the “% QH (percentage of hepatic blood flow)” value is 78.8%. Moreover, in data set [3] (Rat Female), the “F (%) @ 5 mg/kg” value was found to be 8.39%. Moreover, the “F (%) @ 5 mg/kg” value in data set [3] (Rat Male) stood at 3.69%.
With `CC(C)NC(=O)OC1CCC(c2ncc(-c3ccc(NC(=O)NCc4ccccc4)cc3S(=O)(=O)NC(C)(C)C)s2)CC1` (stereo not drawn) [Ex. 21], in data set [1], the Papp A→B at 90 min turned out to be 3.6 ×10⁻⁶ cm/s, the Papp B→A at 90 min worked out at 10.7 ×10⁻⁶ cm/s and the efflux ratio at 90 min was 3.
The matching figures for `CC(C)OC(=O)NC1CCC(c2ncc(-c3ccc(NC(=O)N[C@H](C)c4ccccn4)cc3S(=O)(=O)NC(C)(C)C)s2)CC1` (stereo partly drawn) [Ex. 30, isopropyl ((1R,4r)-4-(5-(2-(N-(tert-butyl)sulfamoyl)-4-(3-((R)-1-(pyridin-2-yl)ethyl)ureido)phenyl)thiazol-2-yl)cyclohexyl)carbamate]: 11.5 ×10⁻⁶ cm/s, 15.7 ×10⁻⁶ cm/s and 1.4.
